In patent publication US20240216410A1, “METHODS AND COMPOSITIONS FOR TREATING CANCER THERAPY-INDUCED NEUTROPENIC FEVER AND/OR GVHD” (BOARD OF REGENTS, THE UNIVERSITY OF TEXAS SYSTEM, priority 2021, published 2024):

Assays:
[1] = system: colonic mucus layer; assay: Murine GVHD model: colonic mucus layer thickness (PAS staining); assay type: in vivo, mice; details: day 18; vs untreated GVHD mice and syngeneic mice
Procedure: Next, assessed was the impact of meropenem treatment on the dense colonic mucus layer of mice with GVHD.
Allo-HSCT recipient mice were treated with meropenem as in FIG. 15A and with xylose from days 13 to 20 (FIG. 18F). […] Importantly, in vitro, growth of mouse and human-derived BT in carbohydrate-poor media was augmented by xylose (FIG. 23B).
Xylose administration. D-(+)-xylose (X3877, SIGMA-ALDRICH®) was dissolved in phosphate buffer pH 8.0 with meropenem or in water without meropenem and given at a concentration of 0.5% from days 13 to 20 after allo-HSCT.
Histological and immunohistochemistry analysis. […] Pathology scores were quantified by a blinded pathologist. […] Sections were imaged using an APERIO® AT2.

[2] = Meropenem concentrations in cecal contents after subcutaneous injection (LC-MS); assay type: in vivo, mice; details: 4, 8, 24, 48 and 96 hours
Procedure: (§1) To further explore a potential causal relationship between meropenem and intestinal GVHD, the effects of meropenem on GVHD in a mouse model of allo-HSCT were examined. A method of administering meropenem to mice was first developed that would better mimic the effects of meropenem on the intestinal microbiome of patients, which is typically given every 8 hours intravenously. Previously, antibiotics were administered subcutaneously to mice (25), and meropenem concentrations were quantified in the cecal lumen of mice 4, 8, 24, 48 and 96 hours after subcutaneous injection. […] Next, drinking water was evaluated as a means of continuously administering meropenem to mice, using bacterial density quantified by 16S ribosomal RNA (16S rRNA) gene quantitative PCR (qPCR) to gauge reductions of the intestinal microbiota.
Pharmacokinetics of meropenem by Triple Quadruple liquid chromatography-mass spectrometry (LC-MS). C57BL/6 mice were treated with 10 mg of meropenem by subcutaneously injection. Cecal contents were collected prior to, 4, 8, 24, 48, and 96 hours after meropenem injection. To determine the relative abundance of meropenem in mouse cecum samples, extracts were prepared and analyzed with a THERMO […]™ TSQ […]™ triple quadruple mass spectrometer coupled with a DIONEX™ ULTIMATE™ 3000 HPLC system. […]

[3] = system: intestinal microbiota; assay: Fecal bacterial density by 16S rRNA gene qPCR in normal mice given meropenem in drinking water; assay type: in vivo; details: 0.625 g/L meropenem in drinking water
Procedure: as §1
Quantification of fecal bacterial density. Genomic DNA was isolated from stool as described above. qPCR was performed as previously described (66). In brief, 16S rRNA gene sequences were amplified from total fecal DNA using the primers 926F (5′-[…]-3′, where K is a G or a T; SEQ ID NO:2) and 1062R (5′-[…]-3′, where R is an A or a G; SEQ ID NO:3). […] To determined bacterial density, a plasmid with a 16S rRNA gene of a murine Blautia isolate was generated in the pCR4 backbone and used as a standard.

[4] = system: intestinal microbiome; assay: allo-HSCT patients who underwent intestinal microbiome profiling (meropenem-treated vs untreated); assay type: in vivo, human
Procedure: Next, the effects of meropenem on the composition of the colonic microbiota of transplanted patients and mice were investigated. Fecal specimens were collected from HSCT patients transplanted from 2014 to 2019 and 44 patients were identified who were treated with allo-HSCT following conditioning with fludarabine and busulfan.
Fecal samples collected at baseline following hospital admission around day −7 as well as on day 14 following allo-HSCT were examined (FIG. 15A). […] A paired differential abundance analysis was then performed, asking which bacterial genera were the most changed from baseline in the two subgroups of patients.
Retrospective study design.
Sequencing of 16S rRNA gene amplicons. Fecal samples from patients and mice were weighed before DNA isolation. In brief, genomic DNA was isolated using the QIAAMP® DNA mini kit (51306, QIAGEN®) according to the manufacturer's protocol that was modified to include an intensive bead-beating lysis step. The V4 region of 16S rRNA gene was amplified by PCR from 100 ng of each of extracted and purified genomic DNA using 515 forward and 806 reverse primer pairs (59). The quality and quantity of the barcoded amplicons were assessed on an Agilent 4200 TapeStation system (Agilent) and QUBIT™ Fluorometer (THERMO FISHER […]™), and libraries were prepared after pooling at equimolar ratios. The final libraries were purified using […]® gel extraction kit (28706X4, QIAGEN®) and sequenced with a 2×250 base pair paired-end protocol on the […]® MISEQ™ platform.
Microbiome data analysis. Sequencing data from paired-end reads were de-multiplexed using QIIME 2 (60). Merging of paired-end reads, dereplicating, and length filtering was performed using VSEARCH 2.17.1 (61). Following de-noising and chimera calling using the unoise3 command (62), unique sequences were taxonomically classified with mothur (63) using the Silva database (64) version 138. Weighted UniFrac distances (65) were determined using QIIME 2, visualized using principal coordinate analysis, and evaluated for statistical significance using permutational multivariate analysis of variance (PERMANOVA) testing. For differential abundance analysis, abundances of sequences belonging to taxonomical groups were included for analysis using the Mann-Whitney U test and adjusted for multiple comparisons using the method of Benjamini and Hochberg. Paired samples were analyzed using the Wilcoxon signed rank test with adjustment for multiple comparisons.

[5] = 44 microbiome-profiled patients, meropenem days −10 to 14

For `C[C@@H](O)[C@H]1C(=O)N2C(C(=O)O)=C(S[C@@H]3CN[C@H](C(=O)N(C)C)C3)[C@H](C)[C@H]12` [meropenem], the “colonic mucus layer thickness” value [1] was “significantly thinned colonic mucus layer”, the “meropenem concentrations in the cecum” value [2] was “increase in meropenem concentrations in the cecum at 4 hours after injection, which rapidly declined thereafter” and the “reduction in fecal bacterial density” value [3] was “substantial one-log reduction in fecal bacterial density”. The “Acute GVHD Grade 0, number of patients” value [4, 5] was 7, the “Acute GVHD Grade 0, percentage of patients” value [4, 5] was “(38%)” and the “Acute GVHD Grade I, number of patients” value [4, 5] was 0. The “Acute GVHD Grade I, percentage of patients” value [4, 5] was “(0%)”, the “Acute GVHD Grade II, number of patients” value [4, 5] was 7 and the “Acute GVHD Grade II, percentage of patients” value [4, 5] was “(38%)”. For the same molecule, the “Acute GVHD Grade III-IV, number of patients” value [4, 5] was 4, the “Acute GVHD Grade III-IV, percentage of patients” value [4, 5] was “(22%)” and the “bacterial genera most changed from baseline (paired differential abundance)” value ([4]; fecal samples pre-HSCT vs day 14) was “significant expansion of bacteria from the genus Bacteroides”.
